Experimental data published in the NIST ThermoML archive (doi:10.1021/je050010l).
Numbers after ± are expanded uncertainties.

Assays:
[1] = refractive index (Na D-line) (dimensionless); xn = mol fraction of the nth substance listed; conditions: 100.8 kPa, Liquid, Standard Abbe refractometry
[2] = xn = mol fraction of the nth substance listed; conditions: 100.8 kPa, Liquid; for viscosity: Capillary tube (Ostwald / Ubbelohde) method

CC(C)=O [acetone] + CCO
Conditions | mass density, 288.15 K [kg/m3] | mass density, 298.15 K [kg/m3] | mass density, 308.15 K [kg/m3] | refractive index, 288.15 K | refractive index, 298.15 K | refractive index, 308.15 K | viscosity, 288.15 K [mPa·s] | viscosity, 298.15 K [mPa·s] | viscosity, 308.15 K [mPa·s]
[1], x1 = 0.05 | – | – | – | 1.36354 ± 0.00031 | 1.35919 ± 0.00031 | 1.35486 ± 0.00031 | – | – | –
[1], x1 = 0.1 | – | – | – | 1.3636 ± 0.00031 | 1.35915 ± 0.00031 | 1.3547 ± 0.00031 | – | – | –
[1], x1 = 0.15 | – | – | – | 1.36366 ± 0.00031 | 1.35909 ± 0.00031 | 1.35454 ± 0.00031 | – | – | –
[1], x1 = 0.2 | – | – | – | 1.36361 ± 0.00031 | 1.35899 ± 0.00031 | 1.35435 ± 0.00031 | – | – | –
[1], x1 = 0.25 | – | – | – | 1.36357 ± 0.00031 | 1.35887 ± 0.00031 | 1.35414 ± 0.00031 | – | – | –
[1], x1 = 0.3 | – | – | – | 1.3635 ± 0.00031 | 1.35873 ± 0.00031 | 1.35391 ± 0.00031 | – | – | –
[1], x1 = 0.35 | – | – | – | 1.36343 ± 0.00031 | 1.35857 ± 0.00031 | 1.35369 ± 0.00031 | – | – | –
[1], x1 = 0.4 | – | – | – | 1.36334 ± 0.00031 | 1.35842 ± 0.00031 | 1.35346 ± 0.00031 | – | – | –
[1], x1 = 0.45 | – | – | – | 1.36324 ± 0.00031 | 1.35826 ± 0.00031 | 1.35324 ± 0.00031 | – | – | –
[1], x1 = 0.4999 | – | – | – | 1.36313 ± 0.00031 | 1.35809 ± 0.00031 | 1.353 ± 0.00031 | – | – | –
[1], x1 = 0.55 | – | – | – | 1.36301 ± 0.00031 | 1.3579 ± 0.00031 | 1.35276 ± 0.00031 | – | – | –
[1], x1 = 0.6 | – | – | – | 1.36289 ± 0.00031 | 1.35771 ± 0.00031 | 1.35251 ± 0.00031 | – | – | –
[1], x1 = 0.65 | – | – | – | 1.36275 ± 0.00031 | 1.35753 ± 0.00031 | 1.35228 ± 0.00031 | – | – | –
[1], x1 = 0.7 | – | – | – | 1.36261 ± 0.00031 | 1.35734 ± 0.00031 | 1.35203 ± 0.00031 | – | – | –
[1], x1 = 0.75 | – | – | – | 1.36246 ± 0.00031 | 1.35713 ± 0.00031 | 1.35177 ± 0.00031 | – | – | –
[1], x1 = 0.8 | – | – | – | 1.3623 ± 0.00031 | 1.35692 ± 0.00031 | 1.35152 ± 0.00031 | – | – | –
[1], x1 = 0.8501 | – | – | – | 1.36214 ± 0.00031 | 1.35673 ± 0.00031 | 1.35127 ± 0.00031 | – | – | –
[1], x1 = 0.9 | – | – | – | 1.36198 ± 0.00031 | 1.35651 ± 0.00031 | 1.35102 ± 0.00031 | – | – | –
[1], x1 = 0.95 | – | – | – | 1.36177 ± 0.00031 | 1.35629 ± 0.00031 | 1.3508 ± 0.00031 | – | – | –
[1], x1 = 1 | – | – | – | 1.36152 ± 0.00031 | 1.35605 ± 0.00031 | 1.35057 ± 0.00031 | – | – | –
[2], x1 = 0.05 | 794.4 ± 0.23 | 785.59 ± 0.23 | 776.66 ± 0.24 | – | – | – | 1.126 ± 0.009 | 0.944 ± 0.008 | 0.793 ± 0.007
[2], x1 = 0.1 | 794.86 ± 0.23 | 785.84 ± 0.23 | 776.66 ± 0.24 | – | – | – | 0.985 ± 0.008 | 0.829 ± 0.007 | 0.703 ± 0.006
[2], x1 = 0.15 | 795.23 ± 0.23 | 786 ± 0.23 | 776.61 ± 0.24 | – | – | – | 0.873 ± 0.007 | 0.741 ± 0.006 | 0.632 ± 0.005
[2], x1 = 0.2 | 795.5 ± 0.23 | 786.08 ± 0.23 | 776.53 ± 0.24 | – | – | – | 0.783 ± 0.007 | 0.669 ± 0.006 | 0.575 ± 0.005
[2], x1 = 0.25 | 795.75 ± 0.23 | 786.16 ± 0.23 | 776.41 ± 0.24 | – | – | – | 0.709 ± 0.006 | 0.61 ± 0.005 | 0.527 ± 0.005
[2], x1 = 0.3 | 795.99 ± 0.23 | 786.23 ± 0.23 | 776.28 ± 0.24 | – | – | – | 0.649 ± 0.006 | 0.561 ± 0.005 | 0.487 ± 0.004
[2], x1 = 0.35 | 796.18 ± 0.23 | 786.24 ± 0.23 | 776.12 ± 0.24 | – | – | – | 0.598 ± 0.005 | 0.521 ± 0.005 | 0.453 ± 0.004
[2], x1 = 0.4 | 796.34 ± 0.23 | 786.23 ± 0.23 | 775.96 ± 0.24 | – | – | – | 0.556 ± 0.005 | 0.486 ± 0.004 | 0.426 ± 0.004
[2], x1 = 0.45 | 796.46 ± 0.23 | 786.21 ± 0.23 | 775.79 ± 0.24 | – | – | – | 0.518 ± 0.005 | 0.457 ± 0.004 | 0.403 ± 0.004
[2], x1 = 0.4999 | 796.57 ± 0.23 | 786.19 ± 0.23 | 775.63 ± 0.24 | – | – | – | 0.488 ± 0.004 | 0.431 ± 0.004 | 0.383 ± 0.004
[2], x1 = 0.55 | 796.68 ± 0.22 | 786.17 ± 0.23 | 775.47 ± 0.24 | – | – | – | 0.461 ± 0.004 | 0.409 ± 0.004 | 0.364 ± 0.003
[2], x1 = 0.6 | 796.77 ± 0.22 | 786.13 ± 0.23 | 775.3 ± 0.24 | – | – | – | 0.438 ± 0.004 | 0.39 ± 0.004 | 0.349 ± 0.003
[2], x1 = 0.65 | 796.84 ± 0.22 | 786.07 ± 0.23 | 775.13 ± 0.24 | – | – | – | 0.418 ± 0.004 | 0.373 ± 0.003 | 0.335 ± 0.003
[2], x1 = 0.7 | 796.86 ± 0.22 | 786 ± 0.23 | 774.96 ± 0.24 | – | – | – | 0.401 ± 0.004 | 0.358 ± 0.003 | 0.322 ± 0.003
[2], x1 = 0.75 | 796.88 ± 0.22 | 785.9 ± 0.23 | 774.77 ± 0.24 | – | – | – | 0.386 ± 0.004 | 0.345 ± 0.003 | 0.312 ± 0.003
[2], x1 = 0.8 | 796.91 ± 0.22 | 785.84 ± 0.23 | 774.59 ± 0.24 | – | – | – | 0.373 ± 0.003 | 0.334 ± 0.003 | 0.303 ± 0.003
[2], x1 = 0.8501 | 796.9 ± 0.22 | 785.73 ± 0.23 | 774.4 ± 0.24 | – | – | – | 0.363 ± 0.003 | 0.325 ± 0.003 | 0.295 ± 0.003
[2], x1 = 0.9 | 796.92 ± 0.22 | 785.66 ± 0.23 | 774.23 ± 0.24 | – | – | – | 0.353 ± 0.003 | 0.317 ± 0.003 | 0.288 ± 0.003
[2], x1 = 0.95 | 796.91 ± 0.22 | 785.57 ± 0.23 | 774.08 ± 0.24 | – | – | – | 0.344 ± 0.003 | 0.309 ± 0.003 | 0.281 ± 0.003
[2], x1 = 1 | 796.87 ± 0.22 | 785.47 ± 0.23 | 773.91 ± 0.24 | – | – | – | 0.334 ± 0.003 | 0.302 ± 0.003 | 0.274 ± 0.003
